Measured values as given in patent US20170266157A1, “METHODS FOR WOUND HEALING AND SCAR PREVENTION” (priority 2016, published 2017).

Legend:
[1] = tested on: ED&C sites of the supradeltoid regions of the upper arm; assay: Healing after electrodissection and curettage (ED&C) of the upper arm, topical treatment; assay type: in vivo, person
Procedure: The supradeltoid regions of the left and right upper arm were treated by electrodissection and curettage (“ED&C”) for treatment of basal cell […]. Beginning on the day of surgery, and daily thereafter the sites were treated with RT175 in an Amantle™ cream base, or with the Amantle™ cream base alone. […] See FIG. 2, Day 20, bottom panel. In contrast, 68 days after the procedure the vehicle treated site was still not fully closed. Six-months following the procedure, the RT175-treated site was scar-free, see FIG. 3, panel a., while the vehicle-treated site has a pronounced, hypopigmented stellate shaped scar, see FIG. 3, panel b.

[2] = biological target: T1, FK506 binding protein 4 (FKBP52) (Homo sapiens, UniProt Q02790); details: cited from earlier work
T1 sequence (Q02790 1-459): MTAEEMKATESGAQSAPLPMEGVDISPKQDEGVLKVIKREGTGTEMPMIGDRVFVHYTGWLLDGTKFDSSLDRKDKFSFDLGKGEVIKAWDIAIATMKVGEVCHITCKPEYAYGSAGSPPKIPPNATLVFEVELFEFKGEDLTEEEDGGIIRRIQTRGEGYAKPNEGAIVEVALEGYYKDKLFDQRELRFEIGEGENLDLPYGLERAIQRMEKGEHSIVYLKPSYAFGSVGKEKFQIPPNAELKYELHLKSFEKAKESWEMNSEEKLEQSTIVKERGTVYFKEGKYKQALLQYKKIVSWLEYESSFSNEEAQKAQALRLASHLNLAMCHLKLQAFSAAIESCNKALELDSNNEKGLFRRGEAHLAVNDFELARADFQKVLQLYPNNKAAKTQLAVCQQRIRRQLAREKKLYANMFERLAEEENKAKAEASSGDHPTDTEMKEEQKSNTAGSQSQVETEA

[3] = biological target: T2, FKBP52 (Homo sapiens, UniProt Q02790); details: treatment of fibroblasts for 2 hours; cited from earlier work
T2 construct: endogenous in cells
T2 sequence (Q02790 1-459): T1 sequence (Q02790 1-459)

[4] = tested on: resection site of a periauricular basal cell carcinoma; assay: Healing of full-thickness resection site of periauricular basal cell carcinoma, topical treatment; assay type: in vivo, person
Excerpt: A person underwent a full-thickness resection of a basal cell carcinoma on an outpatient basis. See FIG. 1, panel a. showing wound during operation and panel b. showing wound immediately post operation. RT175 formulated in an Amantle™ cream base was applied immediately post-operatively, and then daily thereafter for 12 days. […] An archival photo of a scar biopsy is included for comparison.

[5] = tested on: stem cell markers Oct-4 and Sox-2; assay: Stem cell marker immunohistology of treated 5 mm dermal biopsy punch sites; assay type: in vivo, person; details: RT175 in Amantle cream base daily for 30 days, re-biopsy, 10 micron sections
Procedure: A person underwent bilateral 5 millimeter (“mm”) dermal biopsy punches in the forearm, 5 centimeter (“cm”) distal to the antecubital space. Treatment with RT175 in an Amantle™ cream base, or with the Amantle™ cream base alone was begun immediately upon hemostasis. The skin was treated daily for 30 days, whereupon the sites were re-biopsied and the tissue processed for immunohistology. 10 micron thick sections were stained for the expression of the stem cell markers Oct-4, see FIG. 4, panels a. and c., or Sox-2, see FIG. 4, panels b. and d. […] Not to be held to a particular theory, the presence of stem cells markers in RT175 treated wound sites indicates active stem cells. The presence of these stem cells in the wound site causes rapid and proper wound healing without the formation of scar tissue. In turn, the absence of stem cells from wound sites allows the formation of scar tissue.

[6] = tested on: dermabrasion lesions of dorsal skin; assay: Dermabrasion lesions of dorsal skin of mice, topical treatment; assay type: in vivo, ICR breeder mice; details: 5 μL of 100 nanomolar RT1061 topical once daily, 10 days after rasping
Procedure: Retired ICR breeder mice of both sexes with weight between 45 and 50 grams were shaved and rasped to induce dermabrasion lesions. The animals were then randomly assigned (5 per treatment arm) to one of two groups to receive either 5 μL of 100 nanomolar RT1061 or a vehicle control. RT1061 or vehicle control was applied topically to the lesion site once each day including immediately after dermabrasion.

[7] = tested on: ear punch-hole wound (mouse pinna); assay: Punch-hole biopsy of the ear of mice, topical treatment; assay type: in vivo, ICR breeder mice; details: topical once daily, within 21 days of punch-hole biopsy; 2.4 μg RT1061, 80 μg FK506
Procedure: Retired ICR breeder mice of both sexes with weight between 45 and 50 grams were subject to single bilateral punch-hole biopsies. The animals were then randomly assigned to one of three groups to receive either 2.4 μg of RT1061, 80 μg FK506 or a vehicle control. RT1061, FK506 or vehicle control was applied topically to both the ventral and dorsal surface of the ear, once each day including immediately after biopsy.
All wounds were photographed using a Nikon CoolPix 990 digital camera. Each image included a metric ruler that had been approximated to the wound. The images of the wounds were opened in Adobe Photoshop, and using the “measurement tool”, the length, in pixels, of 3 cm along the ruler's straight edge was determined. That number was used to calculate a conversion factor that was then used to normalize each photograph. The conversion factor was calculated as 100/length. To normalize the area of the lesion in a photograph, the […] using the “magic wand” tool, and the number of voxels were multiplied by the conversion factor, thus generating the equation: area=volume (voxels)*conversion factor. The area at t=0 was defined as 100%. […] The mean area of the initial hole was calculated as average […] of the punches at t=0 (determined by using an outline of the hole measured against the ruler, using Adobe Photoshop) times π. […]

SMILES	treated site fully closed by ([1]; RT175 in Amantle cream base daily, vehicle site still not fully closed at 68 days) [post-operative day]	scar at treated site ([1]; six months following the procedure)	binding affinity to FKBP52 [2]	translocation of FKBP52 [3]	scar observed, skin appearance ([4]; 12th post-operative day, RT175 in Amantle cream base daily)	wound closed and largely healed by ([4]; RT175 in Amantle cream base, applied immediately post-operatively then daily for 12 days) [post-operative day]	scar tissue by biopsy ([4]; biopsy 6 months later)	expression of stem cell markers Oct-4 and Sox-2 in treated tissue [5]	hair growth [6]	regeneration of rasped skin [6]	regeneration of mouse pinna tissue (ear-hole closure) [7]
CCC(C)(C)C(=O)C(=O)N1CCC[C@H]1C(=O)O [RT175]	≤ 20	scar-free	high affinity	translocation of FKBP52 to the nucleus	little to no scar	≤ 7	absence of scar tissue	expressed both stem cell markers			
CCC(C)(C)C(=O)C(=O)N1CCCC1Cc1ccccc1 (centres unmarked) [RT1061, 1-(2-benzylpyrrolidin-1-yl)-3,3-dimethylpentane-1,2-dione]									rapid hair growth	rapid regeneration of rasped skin	almost complete regeneration of the mouse pinna
